According to paper PMC10291553, “Exploring Structure–Activity Relationships in Photodynamic Therapy Anticancer Agents Based on Ir(III)-COUPY Conjugates” (Journal of Medicinal Chemistry, 2023):
Where two headings read alike, the source gives them in different places.

What was measured:
[1] = test system: SK-MEL-28; assay: Photo- and cytotoxic activity determination (MTT), SK-MEL-28 cells; assay type: cell-based, human; details: normoxia; for SK-MEL-28 PI (phototherapeutic index), IC50 dark/IC50 irradiated: dark tested up to 100 μM
Text: Having shown that the Ir(III)-COUPY conjugates can sensitize both type I and II ROS through spectroscopic techniques and readily internalize into living cells, their photocytotoxicity was screened in various cancer cell lines. This screening included two representative melanoma cell lines (human A375 and […] human SK-MEL-28) and cancer cells with resistance to the clinical drug cisplatin. For the latter, both sensitive and cisplatin-resistant ovarian cancer cells (A2780 and A2780cis) as well as HeLa cells, which also show a degree of chemoresistance to the platinum anticancer drug in vitro,[54] were used. For the determination of dark and light cytotoxicity, dose–response curves were assayed from both conditions to provide the correspondent IC50 values, which correspond to the concentration needed for inhibition of cell growth by 50%. Phototherapeutic index (PI) was calculated as the ratio of dark to light IC50 value for each compound.
A375, HeLa, and SK-MEL-28 cells were cultured in Dulbecco’s modified Eagle medium (DMEM) supplemented with 10% FBS, L-glutamine, and 1% penicillin–streptomycin. A2780 and A2780cis cells were grown in RPMI-1640 cell medium supplemented with 10% fetal bovine serum (FBS) and 2 mM L-glutamine. Acquired resistance to cisplatin in the A2780cis cell line was maintained by adding cisplatin 1 μM to culture medium every second passage. Cells were cultured in a humidified incubator at 310 K with 5% CO2 atmosphere and subcultured two or three times a week with appropriate densities and were confirmed to be mycoplasma-free using a standard Hoechst DNA staining method.
A2780, A2780cis, HeLa, A375, and SK-MEL-28 cells were maintained at logarithmic growth-phase and cultured in 96-well plates at a density of 5000 cells/well in complete medium for 24 h at 310 K, 5% CO2 in a humidified incubator. For hypoxia experiments, a hypoxia condition was set up by Tissue Culture Service at University of Murcia using nitrogen (N2) to displace O2 down to a minimum of 2% in a Forma Steri-Cycle i160 incubator (Thermo Fisher Scientific). Serial dilutions of the compounds were added at the final concentrations in the range of 0–100 μM in a final volume of 100 μL per well. A light-based treatment schedule was performed as follows: 1 h incubation with the compounds in the dark, followed by 1 h incubation under irradiation conditions by placing the Photoreactor EXPO-LED from Luzchem (Canada) fitted with green lamps (final light intensity applied of 1.5 mW/cm^2 at λmax = 520 nm) inside the CO2 incubator. All the cell culture plates subjected to light irradiation included untreated controls to verify that cell viability was not affected by light. Then, treatment-containing media was removed, and fresh media was added for a 48 h cell recovery period; the temperature throughout the experiment remained at 310 K. Dark control samples were placed in the same dark conditions and then kept incubated for 1 h in the dark in the humidified CO2 incubator. Medium was then aspirated by suction, cells were loaded with 50 μL of MTT solution (1 mg/mL) for additional 4 h and then removed, and 50 μL of DMSO was added to solubilize the purple formazan crystals formed in active cells. The absorbance was measured at 570 nm using a microplate reader (FLUOstar Omega), and the IC50 values were calculated based on the inhibitory rate curves using the following equation [drawing 4] 4 where I represents the percentage inhibition of viability observed, Imax is the maximal inhibitory effect, IC50 is the concentration that inhibits 50% of maximal growth, C is the concentration of the treatment, and n is the slope of the semi-logarithmic dose–response sigmoidal curves. The non-linear fitting was performed using SigmaPlot 14.0 software. All experiments were performed in three independent studies with n = 3 replicates per concentration level. For a detailed phototoxicity procedure, ref ([43]) includes technical explanations.

[2] = Singlet oxygen generation, time-resolved NIR phosphorescence at 1275 nm; assay type: physicochemical; details: for singlet oxygen quantum yield at 355 nm, ACN / singlet oxygen quantum yield at 355 nm, DCM / singlet oxygen quantum yield at 355 nm, PBS: excitation 355 nm; for singlet oxygen quantum yields in DCM: excitation at 355 and 532 nm
Text: Singlet oxygen generation was studied by time-resolved near-infrared phosphorescence by means of a customized setup. Briefly, a pulsed Nd:YAG laser (FTSS355-Q, Crystal Laser, Berlin, Germany) working at a 1 or 10 kHz repetition rate at 355 nm (0.5 μJ per pulse) or 532 nm (1.2 μJ per pulse) was used to excite the sample. A 1064 nm rugate notch filter (Edmund Optics) and an uncoated SKG-5 filter (CVI Laser Corporation) were placed in the laser path to remove any NIR emission. The light emitted by the sample was filtered with a 1000 nm long-pass filter (Edmund Optics) and later by a narrow bandpass filter at 1275 nm (BK-1270-70-B, bk Interferenzoptik). A thermoelectric-cooled NIR-sensitive photomultiplier tube assembly (H9170-45, Hamamatsu Photonics, Hamamatsu, Japan) was used as a detector. […] The time dependence of the ^1O2 phosphorescence with the signal intensity S(t) is described by eq 2, in which τT and τΔ are the lifetimes of the photosensitizer triplet state and of ^1O2 respectively, and S0 is a preexponential parameter proportional to ΦΔ. [drawing 2] 2
The ΦΔ values of the different samples were obtained by comparing S0 values of optically matched samples and using an appropriate reference by means of eq 3. [drawing 3] 3

[3] = test system: A2780cis cells; assay: Cell death induction (Annexin V/PI staining, FSC/SSC flow cytometry); assay type: cell-based; details: 10 μM; for mode of cell death (Annexin V/Propidium Iodide): 1 h + 1 h 520 nm, 24 h recovery; for secondary cell population with low FSC/SSC ratios (non-viable morphology): 1 h, 520 nm 1 h
Procedure: Cell death induction was evaluated using the Annexin V-FITC/Propidium iodide (AV/PI) dual staining method. Briefly, A2780cis cells were seeded in 12-well plates at a density of 2 × 10^5 cells/well and incubated overnight at 310 K. Tested compounds (10 μM) were added, following the described treatment schedule (1 h incubation + 1 h irradiation with 520 nm light). Irradiated, non-treated cells served as the control group. After 24 h of the drug-free recovery period, cells were harvested by trypsinization, washed with PBS and centrifuged, and the pellets were resuspended in 200 μL of a binding buffer as instructed by the manufacturer (Cayman). The resuspended cell solution was left at room temperature in the dark for 15 min before analysis by flow cytometry (FACSCalibur BecktonDickinson; 10^4 events acquired per sample). Cells were visualized using λexc = 488 channels and registered at 525 nm and 620 nm for Annexin V and propidium iodide in FL1 and FL2 channels, respectively. Cell populations were classified as follows: AV^-/PI^- (viable cells); AV^-/PI^+ (necrotic cells); AV^+/PI^- and AV^+/PI^+ (apoptotic cells). Alternatively, A2780cis cells were subjected to flow cytometry after phototreatments and morphological changes were analyzed using FSC and SSC contour plots. Data were analyzed using FlowJo software. Three independent experiments were performed.

[4] = Homo sapiens, SK-MEL-28, 1 h incubation + 1 h green light 520 nm, 1.5 mW cm^–2, 48 h drug-free medium, read-out: SK-MEL-28 light IC50
[5] = Homo sapiens, SK-MEL-28, kept in the dark, 2 h treatment, 48 h drug-free medium, read-out: SK-MEL-28 dark IC50
[6] = excitation 532 nm, room temperature
[7] = 1 h incubation + 1 h green light 520 nm, 1.5 mW cm^–2, 48 h drug-free medium, read-out: SK-MEL-28 light IC50
[8] = kept in the dark, 2 h treatment, 48 h drug-free medium, read-out: SK-MEL-28 dark IC50

SMILES | IC50 [1, 4] [µM] | IC50 [1, 5] [µM] | SK-MEL-28 PI (phototherapeutic index), IC50 dark/IC50 irradiated ([1]; 520 nm) | IC50 [1, 7] [µM] | IC50 [1, 8] [µM] | mode of cell death (Annexin V/Propidium Iodide) [3] | secondary cell population with low FSC/SSC ratios (non-viable morphology) [3] | also measured
CCN(CC)c1ccc2c(c1)O/C(=C(/C#N)c1cc[n+](C)cc1)C=C2C [1a] | 1.2 ± 0.1 | > 100 | > 86 | – | – | – | – | –
CC1=C/C(=C(\C#N)c2cc[n+](C)cc2)Oc2ccccc21 [1b] | > 100 | > 100 | – | – | – | – | – | IC50 ([1]; Homo sapiens, SK-MEL-28, 520 nm, read-out: SK-MEL-28 Light 520 nm IC50 (microM) Normoxia): > 100 µM; IC50 ([1]; Homo sapiens, SK-MEL-28, dark, read-out: SK-MEL-28 Dark IC50 (microM) Normoxia): > 100 µM; singlet oxygen quantum yield at 355 nm, ACN ([2]; room temperature): 0.01; singlet oxygen quantum yield at 532 nm, ACN [2, 6]: < 0.01; singlet oxygen quantum yield at 355 nm, DCM ([2]; DCM, room temperature): 0.01; singlet oxygen quantum yield at 355 nm, PBS ([2]; room temperature): 0; singlet oxygen quantum yield at 532 nm, PBS [2, 6]: < 0.01
CC1=C/C(=C(\C#N)c2cc[n+](C)cc2)Oc2c1cc1c3c2CCCN3CCC1 [1c] | 0.2 ± 0.01 | 12 ± 1 | 60 | – | – | – | – | singlet oxygen quantum yield at 355 nm, ACN ([2]; room temperature): 0; singlet oxygen quantum yield at 532 nm, ACN [2, 6]: 0.01; singlet oxygen quantum yield at 355 nm, DCM ([2]; DCM, room temperature): 0.03; singlet oxygen quantum yield at 532 nm, DCM ([2]; DCM, excitation 532 nm, room temperature): 0.03; singlet oxygen quantum yield at 355 nm, PBS ([2]; room temperature): 0; singlet oxygen quantum yield at 532 nm, PBS [2, 6]: < 0.01
CCCCn1c2[n+](c3cc(C(=O)OC)ccc31)[Ir-3]13([c]4ccccc4-c4[nH]c5ccccc5[n+]41)([c]1ccccc1-c1[nH]c4ccccc4[n+]13)[n+]1c-2ccc2ccccc21 [2a] | – | – | > 36 | 2.8 ± 0.3 | > 100 | – | – | –
CCCCn1c2[n+](c3cc(C(=O)NCCCNC(=O)C[n+]4ccc(/C(C#N)=C5/C=C(C)c6ccc(N(CC)CC)cc6O5)cc4)ccc31)[Ir-3]13([c]4ccccc4-c4[nH]c5ccccc5[n+]41)([c]1ccccc1-c1[nH]c4ccccc4[n+]13)[n+]1c-2ccc2ccccc21 [3a] | – | – | > 67 | 1.5 ± 0.1 | > 100 | photoinduced necrotic cell death | vastly induced these secondary cell populations | –
CCCCn1c2[n+](c3cc(C(=O)NCCCNC(=O)C[n+]4ccc(/C(C#N)=C5/C=C(C)c6ccccc6O5)cc4)ccc31)[Ir-3]13([c]4ccccc4-c4[nH]c5ccccc5[n+]41)([c]1ccccc1-c1[nH]c4ccccc4[n+]13)[n+]1c-2ccc2ccccc21 [3b] | – | – | > 48 | 2.1 ± 0.2 | > 100 | – | did not produce such changes | singlet oxygen quantum yields in DCM ([2]; DCM): ca. 0.20
CCCCn1c2[n+](c3cc(C(=O)NCCCNC(=O)C[n+]4ccc(/C(C#N)=C5/C=C(C)c6cc7c8c(c6O5)CCCN8CCC7)cc4)ccc31)[Ir-3]13([c]4ccccc4-c4[nH]c5ccccc5[n+]41)([c]1ccccc1-c1[nH]c4ccccc4[n+]13)[n+]1c-2ccc2ccccc21 [3c] | – | – | – | > 100 | > 100 | photoinduced necrotic cell death | vastly induced these secondary cell populations | IC50 ([1]; 520 nm, read-out: SK-MEL-28 Light 520 nm IC50 (microM) Normoxia): > 100 µM; IC50 ([1]; dark, read-out: SK-MEL-28 Dark IC50 (microM) Normoxia): > 100 µM; singlet oxygen quantum yields in DCM ([2]; DCM): ca. 0.20
CCCCn1c2[n+](c3cc(C(=O)NCCCCCC(=O)NCCCNC(=O)C[n+]4ccc(/C(C#N)=C5/C=C(C)c6ccc(N(CC)CC)cc6O5)cc4)ccc31)[Ir-3]13([c]4ccccc4-c4[nH]c5ccccc5[n+]41)([c]1ccccc1-c1[nH]c4ccccc4[n+]13)[n+]1c-2ccc2ccccc21 [3d] | – | – | > 40 | 2.5 ± 0.2 | > 100 | photoinduced necrotic cell death | vastly induced these secondary cell populations | –
CCCCn1c2[n+](c3cc(C(=O)NC[C@H]4CC[C@H](C(=O)NCCCNC(=O)C[n+]5ccc(/C(C#N)=C6/C=C(C)c7ccc(N(CC)CC)cc7O6)cc5)CC4)ccc31)[Ir-3]13([c]4ccccc4-c4[nH]c5ccccc5[n+]41)([c]1ccccc1-c1[nH]c4ccccc4[n+]13)[n+]1c-2ccc2ccccc21 [3e] | – | – | > 13 | 7.6 ± 0.9 | > 100 | photoinduced necrotic cell death | vastly induced these secondary cell populations | –
